Laboratory results: patent US7517889B2, “2,6-substituted-4-monosubstitutedamino-pyrimidine as prostaglandin D2 receptor antagonists” (Aventis Pharmaceuticals, Inc., priority 2004, dated 2009)
Structures can show the parent of a compound that is named as a salt.

These compounds were tested against T1, DP receptor (Homo sapiens, UniProt Q13258) (assay: SPA cAMP assay in human LS174 T cells (human DP functional assay)). Conditions: inhibition of PGD2 (15 nM final) stimulated cAMP, LS174T cells expressing endogenous DP receptor.
T1 construct: the human cell line LS174T, which expresses the endogenous DP receptor; endogenous in cells; host or cells: LS174T human cell line
T1 sequence (Q13258 1-359): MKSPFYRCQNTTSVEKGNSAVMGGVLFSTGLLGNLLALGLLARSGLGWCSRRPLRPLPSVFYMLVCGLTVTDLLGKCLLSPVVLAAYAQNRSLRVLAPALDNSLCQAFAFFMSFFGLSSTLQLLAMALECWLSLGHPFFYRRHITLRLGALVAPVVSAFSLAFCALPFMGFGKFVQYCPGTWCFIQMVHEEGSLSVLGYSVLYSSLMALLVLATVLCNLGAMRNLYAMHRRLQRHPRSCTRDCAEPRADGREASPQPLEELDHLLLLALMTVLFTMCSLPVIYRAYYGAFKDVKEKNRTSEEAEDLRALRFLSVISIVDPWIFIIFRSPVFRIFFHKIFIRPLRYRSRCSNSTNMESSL
Type: cell-based
Outline: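 LS174T cells with endogenous DP receptor, 45,000/well seeded overnight, exposed to compounds at 11 points for 15 min at 37 °C in buffer containing IBMX, with PGD2 stimulation.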

| IC50 [nM] | SMILES |
| --- | --- |
| 243 | COc1ccc(CCNc2cc(-c3cccc(C(=O)O)c3)nc(SC)n2)cc1OC [Example 16(b), 3-{6-[2-(3,4-Dimethoxy-phenyl)-ethylamino]-2-methylsulfanyl-pyrimidin-4-yl}-benzoic acid] |
| 23 | COc1nc(NCC2OCCc3ccccc32)cc(-c2cccc(C(C)(C)C(=O)O)c2)n1 (stereo not shown) [Example 91, 2-(3-{6-[(Isochroman-1-ylmethyl)-amino]-2-methoxy-pyrimidin-4-yl}-phenyl)-2-methyl-propionic acid] |
| 0.5 | COc1nc(NCCc2ccc(Cl)cc2Cl)cc(-c2cccc(C3(C(=O)O)CCCC3)c2)n1 [Example 74, 1-(3-{6-[2-(2,4-Dichloro-phenyl)-ethylamino]-2-methoxy-pyrimidin-4-yl}-phenyl)-cyclopentanecarboxylic acid hydrochloride] |
| 104 | COc1cccc(-c2cc(NCCc3c[nH]c4cc(OC)ccc34)nc(OC)n2)c1 [Example 43(g), [2-(6-Methoxy-1H-indol-3-yl)-ethyl]-[2-methoxy-6-(3-methoxy-phenyl)-pyrimidin-4-yl]-amine hydrochloride] |
| 1.9 | COc1ccc(CCNc2cc(-c3c(C)noc3C)nc(OC)n2)cc1 [Example 8(d), [6-(3,5-Dimethyl-isoxazol-4-yl)-2-methoxy-pyrimidin-4-yl]-[2-(4-methoxy-phenyl)-ethyl]-amine] |
| 278 | COc1nc(NCCc2ccc(Cl)cc2Cl)cc(-c2cccc(C(C)(C)C(=O)NC3CCOCC3)c2)n1 [Example 95(d), 2-(3-{6-[2-(2,4-Dichloro-phenyl)-ethylamino]-2-methoxy-pyrimidin-4-yl}-phenyl)-N-(tetrahydro-pyran-4-yl)-isobutyramide] |
| 0.6 | COC(=O)COc1cccc(-c2cc(NCCc3ccc(Cl)cc3Cl)nc(OC)n2)c1 [Example 22(c), (3-{6-[2-(2,4-Dichloro-phenyl)-ethylamino]-2-methoxy-pyrimidin-4-yl}-phenoxy)-acetic acid methyl ester] |
| 0.4 | COc1nc(NCCc2ccc(Cl)cc2Cl)cc(-c2cccc(C(C)(C)c3nnn[nH]3)c2)n1 [Example 47, hydrochloride] |
| 2 | COc1nc(NCCc2ccc(Cl)cc2Cl)cc(-c2cccc(C(C)(C)C(=O)NS(=O)(=O)Cc3ccccc3)c2)n1 [Example 95(b), N-[2-(3-{6-[2-(2,4-Dichloro-phenyl)-ethylamino]-2-methoxy-pyrimidin-4-yl}-phenyl)-2-methyl-propionyl]-C-phenyl-methanesulfonamide] |
| 11 | COc1nc(NCCc2ccc(Cl)cc2Cl)cc(-c2ccc3nc(NC(C)=O)sc3c2)n1 [Example 94, N-(6-{6-[2-(2,4-Dichloro-phenyl)-ethylamino]-2-methoxy-pyrimidin-4-yl}-benzothiazol-2-yl)-acetamide] |
| 18 | COc1nc(NCCc2ccc(Cl)cc2Cl)cc(-c2cccc(C(C)(C)C(=O)OCC(O)CO)c2)n1 (stereo not shown) [Example 89, 2-(3-{6-[2-(2,4-Dichloro-phenyl)-ethylamino]-2-methoxy-pyrimidin-4-yl}-phenyl)-2-methyl-propionic acid 2,3-dihydroxy-propyl ester] |
| 369 | COc1nc(NCCc2ccc(OC)c(OC)c2)cc(-c2ccc(-c3ccccc3)cc2)n1 [Example 35(e), (6-Biphenyl-4-yl-2-methoxy-pyrimidin-4-yl)-[2-(3,4-dimethoxy-phenyl)-ethyl]-amine] |
| 0.9 | COc1ccc(CCNc2cc(-c3cccc(C#N)c3)nc(OC)n2)cc1 [Example 35(t), 3-{2-Methoxy-6-[2-(4-methoxy-phenyl)-ethylamino]-pyrimidin-4-yl}-benzonitrile] |
| 14 | COC(=O)Cn1cc(-c2cc(NCCc3c(F)cccc3Cl)nc(OC)n2)ccc1=O [Example 22(d), (5-{6-[2-(2-Chloro-6-fluoro-phenyl)-ethylamino]-2-methoxy-pyrimidin-4-yl}-2-oxo-2H-pyridin-1-yl)-acetic acid methyl ester] |
| 0.5 | COc1ccc(CCNc2cc(-c3ccc(OC)c(-c4nnn[nH]4)c3)nc(OC)n2)cc1 [Example 24(c), {2-Methoxy-6-[4-methoxy-3-(1H-tetrazol-5-yl)-phenyl]-pyrimidin-4-yl}-[2-(4-methoxy-phenyl)-ethyl]-amine] |
| 193 | COc1nc(NCCc2ccc(OC(F)(F)F)cc2)cc(-c2ccc(F)c(C(C)(C)C(=O)O)c2)n1 [Example 70, 2-(2-Fluoro-5-{2-methoxy-6-[2-(4-trifluoromethoxy-phenyl)-ethylamino]-pyrimidin-4-yl}-phenyl)-2-methyl-propionic acid] |
| 9.7 | COc1cccc(-c2cc(NCCc3cccs3)nc(OC)n2)c1 [Example 43(e), [2-Methoxy-6-(3-methoxy-phenyl)-pyrimidin-4-yl]-(2-thiophen-2-yl-ethyl)-amine hydrochloride] |
| 56 | COCC(=O)NCCc1cccc(-c2cc(NCCc3ccc(C(F)(F)F)cc3F)nc(OC)n2)c1 [Example 64, N-[2-(3-{6-[2-(2-Fluoro-4-trifluoromethyl-phenyl)-ethylamino]-2-methoxy-pyrimidin-4-yl}-phenyl)-ethyl]-2-methoxy-acetamide] |
| 6 | COc1ccc(CCNc2cc(-c3cccc(-c4cc(C)no4)c3)nc(OC)n2)cc1 [Example 38, {2-Methoxy-6-[3-(3-methyl-isoxazol-5-yl)-phenyl]-pyrimidin-4-yl}-[2-(4-methoxy-phenyl)-ethyl]-amine] |
| 278 | COc1nc(NCC2CN(C)c3ccccc3O2)cc(-c2cccc(C(C)(C)C(=O)O)c2)n1 (stereo not shown) [Example 92, 2-(3-{2-Methoxy-6-[(4-methyl-3,4-dihydro-2H-benzo[1,4]oxazin-2-ylmethyl)-amino]-pyrimidin-4-yl}-phenyl)-2-methyl-propionic acid] |
| 44 | COc1ccc(CCNc2cc(-c3ccc(CN4CCCC4)s3)nc(OC)n2)cc1 [Example 13(a), [2-(4-Methoxy-phenyl)-ethyl]-[2-methoxy-6-(5-pyrrolidin-1-ylmethyl-thiophen-2-yl)-pyrimidin-4-yl]-amine] |
| 5 | COc1nc(NCCc2ccc(Cl)cc2Cl)cc(N2CCCC(c3nn[nH]n3)C2)n1 (stereo not shown) [Example 96, [2-(2,4-Dichloro-phenyl)-ethyl]-{2-methoxy-6-[3-(2H-tetrazol-5-yl)-piperidin-1-yl]-pyrimidin-4-yl}-amine] |
| 56 | COc1ccc(CCNc2cc(-c3ccc(F)c(CNCCN(C)C)c3)nc(OC)n2)cc1 [Example 13(d), N-(2-Fluoro-5-{2-methoxy-6-[2-(4-methoxy-phenyl)-ethylamino]-pyrimidin-4-yl}-benzyl)-N′,N′-dimethyl-ethane-1,2-diamine hydrochloride] |
| 38 | COc1nc(NCC(F)(F)c2ccccc2)cc(-c2cccc(C(C)(C)C(=O)O)c2)n1 [Example 67, 2-{3-[6-(2,2-Difluoro-2-phenyl-ethylamino)-2-methoxy-pyrimidin-4-yl]-phenyl}-2-methyl-propionic acid] |
| 1690 | COc1cccc(-c2cc(NCCCc3ccccc3)nc(OC)n2)c1 [Example 43(l), [2-Methoxy-6-(3-methoxy-phenyl)-pyrimidin-4-yl]-(3-phenyl-propyl)-amine hydrochloride] |
| 0.4 | COc1ccc(CCNc2cc(-c3ccc(F)c(C(=O)O)c3)nc(OC)n2)cc1 [Example 20(a), 2-Fluoro-5-{2-methoxy-6-[2-(4-methoxy-phenyl)-ethylamino]-pyrimidin-4-yl}-benzoic acid] |
| 7 | COc1ccc(CCNc2cc(-c3ccc4[nH]c(=O)oc4c3)nc(OC)n2)cc1 [Example 14(c), 6-{2-Methoxy-6-[2-(4-methoxy-phenyl)-ethylamino]-pyrimidin-4-yl}-3H-benzooxazol-2-one] |
| 548 | COc1ccc(C[C@H](Nc2cc(-c3cccc(OC)c3)nc(OC)n2)C(=O)O)cc1 [Example 43(n), (2S)-2-[2-Methoxy-6-(3-methoxy-phenyl)-pyrimidin-4-ylamino]-3-(4-methoxy-phenyl)-propionic acid] |
| 1 | COc1nc(NCCc2ccc(Cl)cc2Cl)cc(-c2cccc(C(C)C(=O)O)c2)n1 (stereo not shown) [Example 49(a), 2-(3-{6-[2-(2,4-Dichloro-phenyl)-ethylamino]-2-methoxy-pyrimidin-4-yl}-phenyl)-propionic acid hydrochloride] |

| SMILES | IC50 [nM] |
| --- | --- |
| COc1ccc(CCNc2cc(-c3ccc4ncccc4c3)nc(OC)n2)cc1 [Example 10(a), [2-(4-Methoxy-phenyl)-ethyl]-(2-methoxy-6-quinolin-6-yl-pyrimidin-4-yl)-amine] | 0.6 |
| COc1ccc(CCNc2cc(-c3ccc(F)c(CN)c3)nc(OC)n2)cc1 [Example 27, [6-(3-Aminomethyl-4-fluoro-phenyl)-2-methoxy-pyrimidin-4-yl]-[2-(4-methoxy-phenyl)-ethyl]-amine hydrochloride] | 41 |
| COc1nc(NCCc2ccc(OC(F)(F)F)cc2)cc(-c2cccc(N)c2)n1 [Example 5, [6-(3-amino-phenyl)-2-methoxy-pyrimidin-4-yl]-[2-(4-trifluoromethoxy-phenyl)-ethyl]-amine] | 9.6 |
| COc1nc(NCCc2ccc(F)cc2F)cc(-c2cccc(C(=O)O)c2)n1 [Example 7, 3-{6-[2-(2,4-Difluoro-phenyl)-ethylamino]-2-methoxy-pyrimidin-4-yl}-benzoic acid] | 0.8 |
| CCOC(=O)c1cc(-c2cc(NCCc3ccc(OC)cc3)nc(OC)n2)ccc1Cl [Example 35(z), 2-Chloro-5-{2-methoxy-6-[2-(4-methoxy-phenyl)-ethylamino]-pyrimidin-4-yl}-benzoic acid ethyl ester] | 32 |
